The kinase profiling compilation of Christmann-Franck et al. (2016)

What was measured:
Assay in all cases: radiometric filter-binding kinase assay
GCK (human) = GCK (human) (UniProt Q12851)
[1] = system: AKT1 (human), P31749 [S473D]
MAP3K11 (human) = MAP3K11 (human) (UniProt Q16584)
AURKB (human) = AURKB (human) (UniProt Q96GD4)
MST4 (human) = MST4 (human) (UniProt Q9P289)
CaMK1 (human) = CaMK1 (human) (UniProt Q14012)
DYRK3 (human) = DYRK3 (human) (UniProt O43781)
CDK2 CCNA2 (human) = CDK2 CCNA2 (human) (UniProt P20248+P24941)
IKBKB (human) = IKBKB (human) (UniProt O14920)
Chain of IKBKB (human) (O14920 whole entry, looked up): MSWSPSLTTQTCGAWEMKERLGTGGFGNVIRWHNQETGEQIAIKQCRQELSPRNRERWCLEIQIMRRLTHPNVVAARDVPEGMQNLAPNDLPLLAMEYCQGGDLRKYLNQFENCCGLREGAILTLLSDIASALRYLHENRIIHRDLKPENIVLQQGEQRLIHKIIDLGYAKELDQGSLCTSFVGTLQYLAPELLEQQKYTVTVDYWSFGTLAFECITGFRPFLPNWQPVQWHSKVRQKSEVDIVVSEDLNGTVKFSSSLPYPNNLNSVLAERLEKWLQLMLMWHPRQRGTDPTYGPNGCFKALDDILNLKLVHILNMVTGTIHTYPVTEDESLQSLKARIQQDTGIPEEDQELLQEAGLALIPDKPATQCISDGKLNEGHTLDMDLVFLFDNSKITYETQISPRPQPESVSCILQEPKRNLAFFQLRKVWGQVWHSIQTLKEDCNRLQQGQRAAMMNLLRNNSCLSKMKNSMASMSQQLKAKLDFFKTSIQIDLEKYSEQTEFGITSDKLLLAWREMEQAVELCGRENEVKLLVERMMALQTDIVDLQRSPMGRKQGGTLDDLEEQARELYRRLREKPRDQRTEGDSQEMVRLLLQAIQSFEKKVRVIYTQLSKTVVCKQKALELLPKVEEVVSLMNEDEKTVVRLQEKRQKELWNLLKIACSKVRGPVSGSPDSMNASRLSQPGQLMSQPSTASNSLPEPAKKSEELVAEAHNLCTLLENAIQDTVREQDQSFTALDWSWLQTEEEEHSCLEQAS

SRC (human) = SRC (human) (UniProt P12931)
MAP3K7 TAB1 (human) = MAP3K7 TAB1 (human) (UniProt Q15750+O43318)
MAPK10 (human) = MAPK10 (human) (UniProt P53779)
NUAK1 (human) = NUAK1 (human) (UniProt O60285)
MYLK (human) = MYLK (human) (UniProt Q15746)
CHEK2 (human) = CHEK2 (human) (UniProt O96017)
Chain of CHEK2 (human) (O96017 whole entry, looked up): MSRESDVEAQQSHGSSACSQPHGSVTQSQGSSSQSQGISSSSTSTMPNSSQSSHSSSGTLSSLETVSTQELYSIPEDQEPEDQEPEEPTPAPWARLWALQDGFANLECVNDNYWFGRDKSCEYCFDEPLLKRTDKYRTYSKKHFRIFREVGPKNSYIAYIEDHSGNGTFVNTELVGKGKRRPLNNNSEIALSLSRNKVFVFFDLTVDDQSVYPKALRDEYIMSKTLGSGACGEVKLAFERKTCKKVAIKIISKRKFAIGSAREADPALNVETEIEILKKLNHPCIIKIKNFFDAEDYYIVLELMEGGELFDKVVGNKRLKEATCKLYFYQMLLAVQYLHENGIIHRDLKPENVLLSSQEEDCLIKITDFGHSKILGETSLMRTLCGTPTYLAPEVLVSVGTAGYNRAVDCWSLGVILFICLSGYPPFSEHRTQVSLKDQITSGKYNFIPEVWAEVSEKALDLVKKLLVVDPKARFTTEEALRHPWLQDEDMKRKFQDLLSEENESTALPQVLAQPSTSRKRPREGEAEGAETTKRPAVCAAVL

MARK2 (human) = MARK2 (human) (UniProt Q7KZI7)
TAOK1 (human) = TAOK1 (human) (UniProt Q7L7X3)
EPHB1 (human) = EPHB1 (human) (UniProt P54762)
CHEK1 (human) = CHEK1 (human) (UniProt O14757)
PKN2 (human) = PKN2 (human) (UniProt Q16513)
Chain of PKN2 (human) (Q16513 whole entry, looked up): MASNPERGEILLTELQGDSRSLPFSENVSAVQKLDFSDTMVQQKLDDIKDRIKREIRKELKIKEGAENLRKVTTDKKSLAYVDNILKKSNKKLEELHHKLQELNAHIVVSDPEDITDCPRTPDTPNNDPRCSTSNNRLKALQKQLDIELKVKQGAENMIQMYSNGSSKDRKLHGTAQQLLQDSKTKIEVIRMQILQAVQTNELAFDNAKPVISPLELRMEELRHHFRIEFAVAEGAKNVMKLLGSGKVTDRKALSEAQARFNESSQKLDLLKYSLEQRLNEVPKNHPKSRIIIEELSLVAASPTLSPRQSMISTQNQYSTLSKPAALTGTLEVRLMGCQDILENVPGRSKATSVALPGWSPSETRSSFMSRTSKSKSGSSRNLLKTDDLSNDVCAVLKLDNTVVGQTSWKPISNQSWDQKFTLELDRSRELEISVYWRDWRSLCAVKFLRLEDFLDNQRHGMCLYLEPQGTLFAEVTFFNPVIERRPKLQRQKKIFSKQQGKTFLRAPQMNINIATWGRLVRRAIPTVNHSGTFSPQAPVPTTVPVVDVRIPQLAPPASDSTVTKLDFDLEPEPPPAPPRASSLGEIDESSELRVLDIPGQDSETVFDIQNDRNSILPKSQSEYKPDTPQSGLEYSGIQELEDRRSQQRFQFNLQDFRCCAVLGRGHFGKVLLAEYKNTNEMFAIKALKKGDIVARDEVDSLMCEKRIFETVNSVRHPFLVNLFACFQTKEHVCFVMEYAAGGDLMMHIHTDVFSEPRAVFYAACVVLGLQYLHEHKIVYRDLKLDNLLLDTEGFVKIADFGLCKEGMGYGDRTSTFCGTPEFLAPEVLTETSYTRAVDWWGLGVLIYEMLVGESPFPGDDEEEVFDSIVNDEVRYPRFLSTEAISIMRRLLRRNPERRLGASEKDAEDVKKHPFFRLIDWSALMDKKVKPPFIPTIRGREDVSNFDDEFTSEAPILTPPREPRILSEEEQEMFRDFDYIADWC

MAP2K1 (human) = MAP2K1 (human) (UniProt Q02750)
Chain of MAP2K1 (human) (Q02750 whole entry, looked up): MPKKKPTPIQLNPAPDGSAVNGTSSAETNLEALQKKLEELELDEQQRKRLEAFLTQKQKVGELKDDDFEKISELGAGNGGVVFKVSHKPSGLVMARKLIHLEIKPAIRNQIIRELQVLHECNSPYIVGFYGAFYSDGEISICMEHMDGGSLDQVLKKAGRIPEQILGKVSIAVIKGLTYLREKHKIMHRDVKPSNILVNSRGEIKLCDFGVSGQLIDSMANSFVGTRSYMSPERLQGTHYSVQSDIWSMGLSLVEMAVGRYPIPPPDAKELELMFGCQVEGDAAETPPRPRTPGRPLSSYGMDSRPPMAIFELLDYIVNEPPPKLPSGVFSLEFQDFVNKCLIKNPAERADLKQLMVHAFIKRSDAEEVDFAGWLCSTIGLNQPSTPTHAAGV

EPHA4 (human) = EPHA4 (human) (UniProt P54764)
EPHB3 (human) = EPHB3 (human) (UniProt P54753)
LCK (mouse) = settings: accession and sequence are those of the human protein
MINK1 (human) = MINK1 (human) (UniProt Q8N4C8)
EPHB2 (human) = EPHB2 (human) (UniProt P29323)
EPHA2 (human) = EPHA2 (human) (UniProt P29317)
Chain of EPHA2 (human) (P29317 whole entry, looked up): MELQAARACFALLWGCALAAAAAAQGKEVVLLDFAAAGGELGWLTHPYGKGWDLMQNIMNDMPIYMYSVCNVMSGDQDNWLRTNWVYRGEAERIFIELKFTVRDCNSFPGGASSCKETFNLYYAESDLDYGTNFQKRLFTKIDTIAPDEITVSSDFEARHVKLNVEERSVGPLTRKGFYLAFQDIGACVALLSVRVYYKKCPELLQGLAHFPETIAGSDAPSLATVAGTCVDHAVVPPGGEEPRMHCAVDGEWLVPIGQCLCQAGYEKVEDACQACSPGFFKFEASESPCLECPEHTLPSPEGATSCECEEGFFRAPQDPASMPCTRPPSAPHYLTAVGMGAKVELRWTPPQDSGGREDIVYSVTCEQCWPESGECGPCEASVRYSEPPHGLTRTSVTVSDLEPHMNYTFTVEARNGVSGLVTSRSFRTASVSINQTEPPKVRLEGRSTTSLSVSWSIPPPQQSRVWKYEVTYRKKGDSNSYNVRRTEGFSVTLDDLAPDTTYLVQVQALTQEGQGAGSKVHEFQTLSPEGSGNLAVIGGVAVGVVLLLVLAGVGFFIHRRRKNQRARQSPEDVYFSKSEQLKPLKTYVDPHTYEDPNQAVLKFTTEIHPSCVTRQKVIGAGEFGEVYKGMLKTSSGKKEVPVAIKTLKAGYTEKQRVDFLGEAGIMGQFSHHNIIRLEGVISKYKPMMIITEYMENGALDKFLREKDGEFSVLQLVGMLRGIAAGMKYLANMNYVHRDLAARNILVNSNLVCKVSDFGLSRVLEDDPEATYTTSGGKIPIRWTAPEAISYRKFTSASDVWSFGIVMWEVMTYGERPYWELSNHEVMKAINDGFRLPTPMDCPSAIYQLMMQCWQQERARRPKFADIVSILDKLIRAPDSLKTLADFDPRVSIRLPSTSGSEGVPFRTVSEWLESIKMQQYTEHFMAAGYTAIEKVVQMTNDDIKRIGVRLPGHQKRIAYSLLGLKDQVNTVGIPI

[2] = system: PAK2 (human), Q13177 [T402E]
TTK (human) = TTK (human) (UniProt P33981)
TBK1 (human) = TBK1 (human) (UniProt Q9UHD2)
RPS6KA3 KD1 KD2 (human) = RPS6KA3 KD1 KD2 (human) (UniProt P51812)
ROCK2 (rat) = settings: accession and sequence are those of the human protein
MAPK8 (human) = MAPK8 (human) (UniProt P45983)
PAK4 (human) = PAK4 (human) (UniProt O96013)
Chain of PAK4 (human) (O96013 whole entry, looked up): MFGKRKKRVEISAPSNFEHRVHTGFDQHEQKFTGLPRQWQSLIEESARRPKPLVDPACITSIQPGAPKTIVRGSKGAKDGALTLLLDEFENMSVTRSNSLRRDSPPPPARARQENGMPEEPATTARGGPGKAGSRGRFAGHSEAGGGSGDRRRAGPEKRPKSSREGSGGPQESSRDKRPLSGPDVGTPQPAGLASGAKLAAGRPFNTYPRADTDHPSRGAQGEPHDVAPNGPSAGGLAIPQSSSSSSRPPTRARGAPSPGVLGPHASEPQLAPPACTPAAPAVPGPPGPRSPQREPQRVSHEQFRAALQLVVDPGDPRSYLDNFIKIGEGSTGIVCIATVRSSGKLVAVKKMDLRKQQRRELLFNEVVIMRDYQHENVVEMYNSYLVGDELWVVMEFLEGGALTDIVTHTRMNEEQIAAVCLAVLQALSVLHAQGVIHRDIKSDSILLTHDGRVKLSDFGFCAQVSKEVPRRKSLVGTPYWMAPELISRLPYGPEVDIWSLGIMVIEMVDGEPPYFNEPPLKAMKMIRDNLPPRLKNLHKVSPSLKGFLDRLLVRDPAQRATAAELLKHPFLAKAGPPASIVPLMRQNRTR

CSK (human) = CSK (human) (UniProt P41240)
PAK6 (human) = PAK6 (human) (UniProt Q9NQU5)

Chain of DYRK3 (human) (O43781 whole entry, looked up): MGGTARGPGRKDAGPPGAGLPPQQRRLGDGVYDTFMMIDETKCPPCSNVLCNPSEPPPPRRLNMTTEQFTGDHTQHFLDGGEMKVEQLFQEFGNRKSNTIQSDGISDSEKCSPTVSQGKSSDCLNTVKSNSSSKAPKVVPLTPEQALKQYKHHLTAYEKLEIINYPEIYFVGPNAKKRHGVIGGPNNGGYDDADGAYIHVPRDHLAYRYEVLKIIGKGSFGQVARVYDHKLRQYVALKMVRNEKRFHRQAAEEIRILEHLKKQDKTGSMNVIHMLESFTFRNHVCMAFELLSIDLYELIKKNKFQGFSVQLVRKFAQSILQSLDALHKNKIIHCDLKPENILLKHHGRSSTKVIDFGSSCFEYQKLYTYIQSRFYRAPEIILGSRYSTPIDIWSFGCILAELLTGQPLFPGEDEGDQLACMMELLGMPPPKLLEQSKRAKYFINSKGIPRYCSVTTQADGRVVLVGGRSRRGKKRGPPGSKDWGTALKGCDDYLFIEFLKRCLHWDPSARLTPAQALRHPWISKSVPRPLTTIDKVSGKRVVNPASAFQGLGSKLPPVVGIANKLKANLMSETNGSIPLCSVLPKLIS

residual activity (GCK (human); compound 1.0 µM): 102%
residual activity (GCK (human); compound 10.0 µM): 99%
residual activity ([1]; compound 0.1 µM): 86%
residual activity ([1]; compound 1.0 µM): 91%
residual activity ([1]; compound 10.0 µM): 88%
residual activity (MAP3K11 (human); compound 1.0 µM): 88%
residual activity (MAP3K11 (human); compound 10.0 µM): 56%
residual activity (AURKB (human); compound 1.0 µM): 93%
residual activity (AURKB (human); compound 10.0 µM): 90%
residual activity (MST4 (human); compound 0.1 µM): 73%
residual activity (MST4 (human); compound 1.0 µM): 100%
residual activity (MST4 (human); compound 10.0 µM): 77%
residual activity (CaMK1 (human); compound 0.1 µM): 109%
residual activity (CaMK1 (human); compound 1.0 µM): 83%
residual activity (CaMK1 (human); compound 10.0 µM): 22%
residual activity (DYRK3 (human); compound 0.1 µM): 82%
residual activity (DYRK3 (human); compound 1.0 µM): 91%
residual activity (DYRK3 (human); compound 10.0 µM): 64%
residual activity (CDK2 CCNA2 (human); compound 0.1 µM): 88%
residual activity (CDK2 CCNA2 (human); compound 1.0 µM): 100%
residual activity (CDK2 CCNA2 (human); compound 10.0 µM): 115%
residual activity (IKBKB (human); compound 0.1 µM): 84%
residual activity (IKBKB (human); compound 1.0 µM): 93%
residual activity (IKBKB (human); compound 10.0 µM): 84%
residual activity (SRC (human); compound 0.1 µM): 85%
residual activity (SRC (human); compound 1.0 µM): 93%
residual activity (SRC (human); compound 10.0 µM): 121%
residual activity (MAP3K7 TAB1 (human); compound 1.0 µM): 91%
residual activity (MAP3K7 TAB1 (human); compound 10.0 µM): 86%
residual activity (MAPK10 (human); compound 1.0 µM): 105%
residual activity (MAPK10 (human); compound 10.0 µM): 89%
residual activity (NUAK1 (human); compound 1.0 µM): 106%
residual activity (NUAK1 (human); compound 10.0 µM): 78%
residual activity (MYLK (human); compound 0.1 µM): 82%
residual activity (MYLK (human); compound 1.0 µM): 27%
residual activity (MYLK (human); compound 10.0 µM): 10%
residual activity (CHEK2 (human); compound 0.1 µM): 85%
residual activity (CHEK2 (human); compound 1.0 µM): 93%
residual activity (CHEK2 (human); compound 10.0 µM): 54%
residual activity (MARK2 (human); compound 1.0 µM): 106%
residual activity (MARK2 (human); compound 10.0 µM): 83%
residual activity (TAOK1 (human); compound 1.0 µM): 86%
residual activity (TAOK1 (human); compound 10.0 µM): 97%
residual activity (EPHB1 (human); compound 1.0 µM): 102%
residual activity (EPHB1 (human); compound 10.0 µM): 88%
residual activity (CHEK1 (human); compound 0.1 µM): 86%
residual activity (CHEK1 (human); compound 1.0 µM): 98%
residual activity (CHEK1 (human); compound 10.0 µM): 96%
residual activity (PKN2 (human); compound 0.1 µM): 90%
residual activity (PKN2 (human); compound 1.0 µM): 103%
residual activity (PKN2 (human); compound 10.0 µM): 104%
residual activity (MAP2K1 (human); compound 0.1 µM): 91%
residual activity (MAP2K1 (human); compound 1.0 µM): 95%
residual activity (MAP2K1 (human); compound 10.0 µM): 87%
residual activity (EPHA4 (human); compound 1.0 µM): 78%
residual activity (EPHA4 (human); compound 10.0 µM): 76%
residual activity (EPHB3 (human); compound 0.1 µM): 99%
residual activity (EPHB3 (human); compound 1.0 µM): 99%
residual activity (EPHB3 (human); compound 10.0 µM): 90%
residual activity (LCK (mouse); compound 0.1 µM): 88%
residual activity (LCK (mouse); compound 1.0 µM): 106%
residual activity (LCK (mouse); compound 10.0 µM): 58%
residual activity (MINK1 (human); compound 1.0 µM): 91%
residual activity (MINK1 (human); compound 10.0 µM): 55%
residual activity (EPHB2 (human); compound 1.0 µM): 82%
residual activity (EPHB2 (human); compound 10.0 µM): 84%
residual activity (EPHA2 (human); compound 0.1 µM): 97%
residual activity (EPHA2 (human); compound 1.0 µM): 99%
residual activity (EPHA2 (human); compound 10.0 µM): 84%
residual activity ([2]; compound 1.0 µM): 107%
residual activity ([2]; compound 10.0 µM): 108%
residual activity (TTK (human); compound 1.0 µM): 85%
residual activity (TTK (human); compound 10.0 µM): 68%
residual activity (TBK1 (human); compound 0.1 µM): 97%
residual activity (TBK1 (human); compound 1.0 µM): 91%
residual activity (TBK1 (human); compound 10.0 µM): 56%
residual activity (RPS6KA3 KD1 KD2 (human); compound 1.0 µM): 84%
residual activity (RPS6KA3 KD1 KD2 (human); compound 10.0 µM): 46%
residual activity (ROCK2 (rat); compound 0.1 µM): 100%
residual activity (ROCK2 (rat); compound 1.0 µM): 89%
residual activity (ROCK2 (rat); compound 10.0 µM): 79%
residual activity (MAPK8 (human); compound 0.1 µM): 116%
residual activity (MAPK8 (human); compound 1.0 µM): 103%
residual activity (MAPK8 (human); compound 10.0 µM): 86%
residual activity (PAK4 (human); compound 0.1 µM): 83%
residual activity (PAK4 (human); compound 1.0 µM): 110%
residual activity (PAK4 (human); compound 10.0 µM): 96%
residual activity (CSK (human); compound 0.1 µM): 97%
residual activity (CSK (human); compound 1.0 µM): 85%
residual activity (CSK (human); compound 10.0 µM): 97%
residual activity (PAK6 (human); compound 0.1 µM): 101%
residual activity (PAK6 (human); compound 1.0 µM): 92%
residual activity (PAK6 (human); compound 10.0 µM): 87%
SMILES: O=C(Nc1ccccc1-c1cn2c(CN3CCNCC3)csc2n1)c1cnc2ccccc2n1
